The IC50 is the concentration that gives 50% inhibition.

Data set [1] relates to Hek293T (embryonic kidney cells). Nature of the data set: MTT cytotoxicity assay, Hek293T. Particulars: noncancer cell line; 72 h, MTT; mean ± SD; read-out: IC50 Hek293T. The class given is cell-based, human. The protocol: (§1) The parent compound harmine, as well as the reference drug 5-fluorouracil, were used as positive controls.
(§2) The experiments were carried out on five human cell lines purchased from American Type Culture Collection (ATCC): HepG2 (hepatocellular carcinoma; ATCC® HB-8065™), SW620 (colorectal adenocarcinoma; ATCC® CCL-227™), HCT116 (colorectal carcinoma; ATCC® CCL-247™), MCF-7 (breast adenocarcinoma; ATCC® HTB-22™), and Hek293T (embryonic kidney cells; ATCC® CRL-3216™). All cell lines were cultured as monolayers and maintained in Dulbecco’s Modified Eagle Medium (DMEM) (Capricorn Scientific, Ebsdorfergrund, Germany) supplemented with 10% fetal bovine serum (FBS) (Capricorn Scientific, Ebsdorfergrund, Germany), 100 U/mL penicillin, and 100 µg/mL streptomycin (Capricorn Scientific, Ebsdorfergrund, Germany) in a humidified atmosphere with 5% CO2 at 37 °C. Cells were seeded in 96-well plates (Corning, Durham, NC, USA) at 5000–7000 cells per well (depending on the cell-doubling time of a specific cell line) in 0.1 mL media and cultured for 24 h. The next day, the medium was aspirated, and cells were treated for 72 h. Only the compounds that led to more than a 50% reduction in mitochondrial metabolic activity at a concentration of 50 µM were selected for further analysis. The following concentrations of selected compounds were used: 25, 10, 5, and 1 µM. Working dilutions were freshly prepared on the day of the testing. A fresh growth medium was added to untreated control cells, which were defined as 100% viable. DMSO (0.13%) in DMEM was considered a negative control. 5-Fluorouracil (5-FU) and harmine were used as positive controls. At the end of treatment, the medium was removed, and cells were incubated for 1 h with 0.5 mg/mL MTT (Abcam, Cambridge, MA, USA) dissolved in serum-deprived DMEM. The MTT-containing medium was then removed, and 0.1 mL isopropanol was added per well to lyse cells and dissolve formazan. The optical density was measured at 570 nm using a microplate reader (VICTOR3, PerkinElmer, Waltham, MA, USA). Each test point was performed in triplicate. The absorbance was directly proportional to the cell viability. The IC50 values (concentration required to decrease viability by 50%) were calculated by using nonlinear regression on the sigmoidal dose–response plots and are expressed as mean ± SD.
Background: Tetrazolium dyes change colour on reduction, which living cells bring about.

The test system of data set [2] is P. falciparum Dd2 (multidrug-resistant) erythrocytic stages. Nature of the data set: In vitro drug sensitivity assay (HRP2-ELISA) against erythrocytic stages, PfDd2. The settings on record: multidrug-resistant strain; three days incubation; mean ± SD; read-out: IC50 PfDd2. The class given is cell-based. The protocol:
(§3) The in vitro activity of harmicens 20–37 against the erythrocytic stages of CQ-sensitive (Pf3D7) and multidrug-resistant (PfDd2) P. falciparum strains was evaluated following a previously described method (Table 1).
(§4) The antiplasmodial activity of harmicens 20–37 was evaluated against two strains of P. falciparum (3D7—CQ-sensitive, Dd2—multidrug-resistant) as previously described using the histidine-rich protein 2 (HRP2) assay. Briefly, 96-well plates were pre-coated with the tested compounds in a three-fold dilution before ring-stage parasites were added to complete the culture medium at a hematocrit of 1.5% and parasitemia of 0.05%. After three days of incubation at 37 °C, 5% CO2, and 5% oxygen, plates were frozen until HRP2-ELISA analysis. All compounds were evaluated in duplicate in at least two independent experiments. The IC50 was determined using a nonlinear regression analysis of log concentration–response curves using the drc-package v0.9.0 of R v2.6.1 (R Foundation, Vienna, Austria).
(In general: ELISA stands for enzyme-linked immunosorbent assay.)

Data set [3] relates to MCF-7 (breast adenocarcinoma). The data set can be described thus: cells. The settings on record: for IC50: read-out: IC50 MCF-7, 72 h, MTT, mean ± SD; for SI (MCF-7): selectivity index: ratio of IC50 Hek293T to IC50 MCF-7. The protocol: as §1, §2
The test system of another data set is HCT116 cells. Nature of the data set: Cell cycle analysis (propidium iodide, flow cytometry). Format: cell-based, human. The settings on record: 3 µM and 6 µM. How it is done: To that end, the cells were treated for 24 and 48 h with 3 µM and 6 µM concentrations of each compound, which corresponded to 0.5 × IC50 and IC50 values obtained in the MTT assay after 72 h, respectively. Afterward, the DNA was stained with propidium iodide and subjected to flow cytometry analysis.
HCT116 cells were seeded onto 6-well plates (2 × 10^5 cells per well). After 24 h, the tested compounds 28 and 36 were added at two concentrations—3 µM and 6 µM. After 24 h and 48 h, the attached cells were trypsinized, combined with floating cells, washed with phosphate buffer saline (PBS), fixed with 70% ethanol, and stored at −20 °C. Immediately before analysis, the cells were washed two times with PBS, treated with 0.1 μg/μL of RNAse A, and stained for 1 h on ice with 50 μg/mL of propidium iodide. The stained cells were then analyzed using a BD FACScalibur flow cytometer (20,000 counts were measured). The percentage of cells in each cell cycle phase was determined using FlowJo software (TreeStar Inc., San Francisco, CA, USA). The tests were performed in duplicate and repeated in two separate experiments. The average values from duplicates from one representative experiment ± SD are presented.
For orientation: In flow cytometry, cells or beads pass a laser one at a time.

The subject of data set [4] is HCT116 (colorectal carcinoma). The data set can be described thus: MTT cytotoxicity assay, HCT116. The class given is cell-based, human. The settings on record: for IC50: 72 h, MTT, mean ± SD, read-out: IC50 HCT116; for SI (HCT116): selectivity index: ratio of IC50 Hek293T to IC50 HCT116. The protocol: as §1, §2
For data set [5], the system named is P. falciparum 3D7 (CQ-sensitive) erythrocytic stages. The data set can be described thus: In vitro drug sensitivity assay (HRP2-ELISA) against erythrocytic stages, Pf3D7. The class given is cell-based. Particulars: for IC50: read-out: IC50 Pf3D7. The protocol: as §3, §4
For data set [6], the system named is SW620 (colorectal adenocarcinoma). The data set can be described thus: MTT cytotoxicity assay, SW620. Format: cell-based, human. Particulars: 72 h, MTT; mean ± SD; read-out: IC50 SW620. The protocol:
as §1, §2

Data set [7] deals with HepG2 (hepatocellular carcinoma). The data set can be described thus: MTT cytotoxicity assay, HepG2. The class given is cell-based, human. Particulars: 72 h, MTT; mean ± SD; read-out: IC50 HepG2. The protocol: as §1, §2
Where [8] appears, read: CQ-sensitive strain, three days incubation, mean ± SD.

Take `Cc1nccc2c1[nH]c1cc(OCc3cn(C[c-]4cccc4)nn3)ccc12.[Fe+2].c1cc[cH-]c1` [Compound 28, 7-((1-(Ferrocenylmethyl)-1H-1,2,3-triazol-4-yl)methoxy)-1-methyl-9H-pyrido[3,4-b]indole]: the IC50 in data set [1] was greater than 50 µM; in data set [2] it was greater than 56 µM; in data set [3], greater than 50 µM; in data set [4], 7.4 ± 0.4 µM; in data set [5] (setting [8]), greater than 56 µM; in data set [6] it was greater than 50 µM. In addition, the IC50 in data set [7] is greater than 50 µM. The “SI (MCF-7)” value in data set [3] is given as greater than 1. Further, the “effect on cell cycle distribution after 24 h” value in the data set on HCT116 cells was “statistically significant increase in cells in the G1 phase at both tested concentrations”. In addition, the “effect on cell cycle distribution after 48 h” value with HCT116 cells (48 h) is on record as “pronounced G2/M cell cycle arrest”. Further, in data set [4], the “SI (HCT116)” value is greater than 6.8. For the same molecule, the “decrease in antiplasmodial activity against Pf3D7 relative to harmicene 23” value in data set [5] (28 (methylene bridge) versus its counterpart 23) was found to be 370 fold. The “IC50 Pf3D7” value in data set [5] (setting [8]) is “inactive at the highest concentration tested”.
As for `O=C(NCc1nccc2c1[nH]c1ccccc12)[c-]1cccc1.[Fe+2].c1cc[cH-]c1` [Compound 30, N-((9H-Pyrido[3,4-b]indol-1-yl)methyl)ferrocenecarboxamide], the IC50 in data set [1] was greater than 50 µM; in data set [2], 14 ± 1.95 µM; in data set [3] it was 8.5 ± 1.5 µM; in data set [4], 16.8 ± 0.9 µM; in data set [5] (setting [8]), greater than 56 µM; in data set [6], 45.1 ± 3.7 µM. For the same molecule, in data set [7], the IC50 is greater than 50 µM. The “activity against MCF-7 relative to 5-FU (fold stronger)” value in data set [3] was 3–6.5 fold. In data set [3], the “SI (MCF-7)” value is reported as greater than 5.9. Besides, the “SI (HCT116)” value in data set [4] was greater than 3.
As to `Cc1nc(CNC(=O)[c-]2cccc2)cc2c1[nH]c1ccccc12.[Fe+2].c1cc[cH-]c1` [Compound 31, N-((1-Methyl-9H-pyrido[3,4-b]indol-3-yl)methyl)ferrocenecarboxamide], the half-maximal inhibitory concentration (IC50) in data set [1] was greater than 50 µM; in data set [2] it was 8.03 ± 0.19 µM; in data set [3], 19.9 ± 1.1 µM; in data set [4], greater than 50 µM; in data set [5] (setting [8]), 13.2 ± 8.54 µM; in data set [6], greater than 50 µM. Moreover, the IC50 in data set [7] is greater than 50 µM. Also, the “SI (MCF-7)” value in data set [3] is recorded as greater than 2.51. For the same molecule, the “SI (HCT116)” value in data set [4] was greater than 1.
For the molecule `Cc1nccc2c1[nH]c1cc(OCCNC(=O)[c-]3cccc3)ccc12.[Fe+2].c1cc[cH-]c1` [Compound 32, N-(2-((1-Methyl-9H-pyrido[3,4-b]indol-7-yl)oxy)ethyl)ferrocenecarboxamide], the IC50 in data set [1] worked out at 18.6 ± 0.2 µM; in data set [2] it was 0.66 ± 0.01 µM; in data set [3], 9.1 ± 1.4 µM; in data set [4], 6.6 ± 0.8 µM; in data set [5] (setting [8]) it was 0.3 ± 0.09 µM; in data set [6], 9.9 ± 4 µM. Besides, in data set [7], the IC50 is 15.6 ± 0.3 µM. Besides, in data set [3], the “SI (MCF-7)” value is given as 2. Further, in data set [4], the “SI (HCT116)” value stood at 2.8.
For the molecule `COc1ccc2c3ccnc(C)c3n(CCNC(=O)[c-]3cccc3)c2c1.[Fe+2].c1cc[cH-]c1` [Compound 33, N-(2-(7-Methoxy-1-methyl-9H-pyrido[3,4-b]indol-9-yl)ethyl)ferrocenecarboxamide], the half-inhibitory concentration (IC50) in data set [1] is greater than 50 µM; in data set [2], 2.04 ± 0.29 µM; in data set [3] it was 30.5 ± 13.2 µM; in data set [4] it was 16.3 ± 3.2 µM; in data set [5] (setting [8]), 0.4 ± 0.18 µM; in data set [6], greater than 50 µM. Also, the IC50 in data set [7] is greater than 50 µM. Moreover, the “SI (MCF-7)” value in data set [3] was greater than 1.7.
With `O=C(C[c-]1cccc1)NCc1nccc2c1[nH]c1ccccc12.[Fe+2].c1cc[cH-]c1` [Compound 34, N-((9H-Pyrido[3,4-b]indol-1-yl)methyl)-2-ferrocenylacetamide], the IC50 in data set [1] is greater than 50 µM; in data set [2], 1.11 ± 0.01 µM; in data set [3], greater than 50 µM; in data set [4] it was greater than 50 µM; in data set [5] (setting [8]) it was 1.34 ± 0.09 µM; in data set [6], greater than 50 µM. Also, the 50% inhibitory concentration (IC50) in data set [7] is greater than 50 µM. Also, the “SI (MCF-7)” value in data set [3] was greater than 1. Moreover, the “SI (HCT116)” value in data set [4] is given as greater than 1.
Consider `Cc1nc(CNC(=O)C[c-]2cccc2)cc2c1[nH]c1ccccc12.[Fe+2].c1cc[cH-]c1` [Compound 35, N-((1-Methyl-9H-pyrido[3,4-b]indol-3-yl)methyl)-2-ferrocenylacetamide], for which the half-maximal inhibitory concentration (IC50) was greater than 50 µM in data set [1]; 13 ± 5.9 µM in data set [2]; 36.9 ± 6.8 µM in data set [3]; 20.9 ± 1.5 µM in data set [4]; 7.85 ± 2.18 µM in data set [5] (setting [8]); 25 ± 8.1 µM in data set [6]. Besides, in data set [7], the IC50 was greater than 50 µM. The “SI (MCF-7)” value in data set [3] is greater than 1.4. The “SI (HCT116)” value in data set [4] is greater than 2.4.
`Cc1nccc2c1[nH]c1cc(OCCNC(=O)C[c-]3cccc3)ccc12.[Fe+2].c1cc[cH-]c1` [Compound 36, N-(2-((1-Methyl-9H-pyrido[3,4-b]indol-7-yl)oxy)ethyl)-2-ferrocenylacetamide]: the 50% inhibitory concentration (IC50) in data set [1] came out at 8.4 ± 0.3 µM; in data set [2] it was 1.53 ± 0.06 µM; in data set [3] it was 4.5 ± 0.3 µM; in data set [4] it was 5.9 ± 1.3 µM; in data set [5] (setting [8]), 0.42 ± 0.02 µM; in data set [6], 4.2 ± 0.3 µM. In data set [7], the IC50 was 7.4 ± 0.5 µM. For the same molecule, in data set [3], the “SI (MCF-7)” value was found to be 1.9. In the data set on HCT116 cells, the “effect on cell cycle distribution after 24 h” value is on record as “G1 phase arrest only at a higher concentration”. In addition, the “SI (HCT116)” value in data set [4] was 1.4.
As to `COc1ccc2c3ccnc(C)c3n(CCNC(=O)C[c-]3cccc3)c2c1.[Fe+2].c1cc[cH-]c1` [Compound 37, N-(2-(7-Methoxy-1-methyl-9H-pyrido[3,4-b]indol-9-yl)ethyl)-2-ferrocenylacetamide], the 50% inhibitory concentration (IC50) in data set [1] was 30.8 ± 2.4 µM; in data set [2], 1.8 ± 0.35 µM; in data set [3], 13.2 ± 0.5 µM; in data set [4] it was 7.5 ± 0.4 µM; in data set [5] (setting [8]), 0.83 ± 0.23 µM; in data set [6], 9.9 ± 1.1 µM. For the same molecule, the concentration for half-maximal inhibition (IC50) in data set [7] came to 28 ± 2.5 µM. For the same molecule, the “SI (MCF-7)” value in data set [3] was found to be 2.3. Also, the “SI (HCT116)” value in data set [4] was determined as 4.1.

These data come from publication PMC9408872, “Harmicens, Novel Harmine and Ferrocene Hybrids: Design, Synthesis and Biological Activity” (International Journal of Molecular Sciences, 2022).
